Experimental data published in US10544106B2, “Certain chemical entities, compositions, and methods” (NeuPharma, Inc., priority 2016, dated 2020).

Molecular target: BTK (Homo sapiens (Human), UniProt Q06187)
Assay: Z'-LYTE kinase inhibition assay against BTK
Assay type: biochemical
Conditions: for inhibition at 0.1 µM: compound at 100 nM, ATP concentration at Km; for IC50: series of concentrations, GraphPad Prism 5
How it was run: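 Compounds were titrated over 10 points (3-fold steps, 1% DMSO) against BTK (1.04-10.4 ng) using Tyr 01 substrate at 2 μM and ATP at Km, pH 7.5 HEPES buffer with MgCl2 and EGTA. After one hour each of reaction and development at room temperature, fluorescence gave percent inhibition and IC50.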

BTK, sequence (Q06187 whole entry): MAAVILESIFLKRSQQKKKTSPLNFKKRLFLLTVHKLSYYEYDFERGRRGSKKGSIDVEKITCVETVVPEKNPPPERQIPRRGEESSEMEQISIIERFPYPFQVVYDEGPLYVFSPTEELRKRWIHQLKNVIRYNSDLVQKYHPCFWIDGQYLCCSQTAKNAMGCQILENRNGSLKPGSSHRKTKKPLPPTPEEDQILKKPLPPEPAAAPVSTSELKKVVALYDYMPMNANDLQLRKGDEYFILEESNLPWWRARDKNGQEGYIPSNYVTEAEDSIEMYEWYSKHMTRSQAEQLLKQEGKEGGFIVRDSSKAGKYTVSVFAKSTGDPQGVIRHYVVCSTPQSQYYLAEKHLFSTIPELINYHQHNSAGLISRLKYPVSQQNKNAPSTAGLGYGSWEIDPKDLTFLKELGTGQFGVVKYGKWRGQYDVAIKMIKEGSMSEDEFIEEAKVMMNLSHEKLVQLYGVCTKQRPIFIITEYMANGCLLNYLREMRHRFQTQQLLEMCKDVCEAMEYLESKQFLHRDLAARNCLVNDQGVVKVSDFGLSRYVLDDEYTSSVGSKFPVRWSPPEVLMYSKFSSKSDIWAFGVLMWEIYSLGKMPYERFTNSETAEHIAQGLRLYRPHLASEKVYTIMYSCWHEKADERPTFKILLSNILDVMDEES

Compound	inhibition at 0.1 µM [%]	IC50 [nM]
C=CC(=O)Nc1cccc(-c2cc(-c3ccc(C)nc3)cc3cncnc23)c1 [C010, N-(3-(6-(6-methylpyridin-3-yl)quinazolin-8-yl)phenyl)acrylamide]	> 50	
CC#CC(=O)N1CCC(c2nc(-c3ccc(Oc4cc(C(F)(F)F)ccn4)c(F)c3)n3c(N)nccc23)C1 (centres unmarked) [C207, 1-(3-(5-amino-3-(3-fluoro-4-((4-(trifluoro-methyl)pyridin-2-yl)oxy)phenyl)imidazo[1,5-c]pyrimidin-1-yl)pyrrolidin-1-yl)but-2-yn-1-one]	> 50	
C=CC(=O)Nc1cccc(-c2cc(-c3ccc(C(=O)Nc4cc(C(F)(F)F)ccn4)cc3)cc3cncnc23)c1 [C137, 4-(8-(3-acrylamidophenyl)quinazolin-6-yl)-N-(4-(trifluoromethyl)pyridin-2-yl)benzamide]	> 50	< 100
CC#CC(=O)N1CCC(c2nc(-c3ccc(Oc4cc(C(F)(F)F)ccn4)c(OC)c3)n3c(N)nccc23)C1 (centres unmarked) [C222, 1-(3-(5-amino-3-(3-methoxy-4-((4-(trifluoro-methyl)pyridin-2-yl)oxy)phenyl)imidazo[1,5-c]pyrimidin-1-yl)pyrrolidin-1-yl)but-2-yn-1-one]	> 50	
CC#CC(=O)N1CCC(c2nc(-c3ccc(Oc4ncccc4C#N)cc3)n3c(N)nccc23)C1 (centres unmarked) [C229, 2-(4-(5-amino-1-(1-(but-2-ynoyl)pyrrolidin-3-yl)imidazo[1,5-c]pyrimidin-3-yl)phenoxy)nicotinonitrile]		< 100
C=CC(=O)Nc1cccc(-c2cc(-c3ccc(Oc4ccccn4)cc3F)c(N)c3cncnc23)c1 [C173, N-(3-(5-amino-6-(2-fluoro-4-(pyridin-2-yloxy)phenyl)quinazolin-8-yl)phenyl)acrylamide]	< 50	
C=CC(=O)N1CCC(c2cc(-c3ccc(Oc4ccccn4)c(F)c3)cc3cncnc23)C1 (centres unmarked) [C160, 1-(3-(6-(3-fluoro-4-(pyridin-2-yloxy)phenyl)quinazolin-8-yl)pyrrolidin-1-yl)prop-2-en-1-one]	> 50	
C=CC(=O)N1CCC(c2cc(-c3ccc(C(=O)Nc4cc(C(F)(F)F)ccn4)cc3F)n3cnccc23)C1 (centres unmarked) [C130, 4-(5-(1-acryloylpyrrolidin-3-yl)pyrrolo[1,2-c]pyrimidin-7-yl)-3-fluoro-N-(4-(trifluoromethyl)pyridin-2-yl)benzamide]	< 50	
C=CC(=O)Nc1cccc(-c2cc(-c3ccc(C(=O)Nc4cccc(C)c4)nc3)cc3cncnc23)c1 [C070, 5-(8-(3-acrylamidophenyl)quinazolin-6-yl)-N-(m-tolyl)picolinamide]	< 50	
C=CC(=O)Nc1cccc(-c2cc(-c3ccc(C(=O)Nc4cc(C5CC5)ccn4)cc3Cl)c(N)c3cncnc23)c1 [C200, 4-(8-(3-acrylamidophenyl)-5-aminoquinazolin-6-yl)-3-chloro-N-(4-cyclopropylpyridin-2-yl)benzamide]	> 50	
C=CC(=O)N1CCCC(c2nc(-c3ccc(Oc4ncccc4C#N)c(F)c3)n3c(N)nccc23)C1 (centres unmarked) [C234, 2-(4-(1-(1-acryloylpiperidin-3-yl)-5-amino-imidazo[1,5-c]pyrimidin-3-yl)-2-fluorophenoxy)nicotinonitrile]		< 100
C=CC(=O)Nc1cccc(-c2cc(-c3ccc(C(=O)Nc4cc(C(N)=O)ccn4)cc3)cc3cncnc23)c1 [C138, 2-(4-(8-(3-acrylamidophenyl)quinazolin-6-yl)benzamido)isonicotinamide]	< 50	
C=CC(=O)N1CCC(c2cc(-c3ccc(Oc4ccccn4)cc3)cc3cncnc23)C1 (centres unmarked) [C107, 1-(3-(6-(4-(pyridin-2-yloxy)phenyl)quinazolin-8-yl)pyrrolidin-1-yl)prop-2-en-1-one]	> 50	
C=CC(=O)Nc1cccc(-n2c(-c3ccccc3)nc3cncnc32)c1 [C014, N-(3-(8-phenyl-9H-purin-9-yl)phenyl)acrylamide]	< 50	
C=CC(=O)N1CCC(c2cc(-c3ccc(C(=O)Nc4ncccc4F)cc3)c(N)c3cncnc23)C1 (centres unmarked) [C215, 4-(8-(1-acryloylpyrrolidin-3-yl)-5-amino-quinazolin-6-yl)-N-(3-fluoropyridin-2-yl)benzamide]	< 50	
C=CC(=O)Nc1cccc(-c2cc(-c3ccccc3Cl)cc3cnc(-c4ccccc4)nc23)c1 [C002, N-(3-(6-(2-chlorophenyl)-2-phenylquinazolin-8yl)phenyl)acrylamide]	< 50	
C=CC(=O)Nc1cccc(-c2cc(-c3ccc(C(=O)Nc4cc(C#N)ccn4)c(OC)c3)cc3cncnc23)c1 [C156, 4-(8-(3-acrylamidophenyl)quinazolin-6-yl)-N-(4-cyanopyridin-2-yl)-2-methoxybenzamide]	< 50	
C=CC(=O)Nc1cccc(-c2cc(-c3ccc(Oc4ccccc4)cc3)c(N)c3cncnc23)c1 [C182, N-(3-(5-amino-6-(4-phenoxyphenyl)quinazolin-8-yl)phenyl)acrylamide]	< 50	
C=CC(=O)Nc1cccc(-c2nc(-c3ccc(Oc4ncccc4C(F)(F)F)cc3)n3c(N)nccc23)c1 [C220, N-(3-(5-amino-3-(4-((3-(trifluoromethyl)pyridin-2-yl)oxy)phenyl)imidazo[1,5-c]pyrimidin-1-yl)phenyl)acrylamide]	> 50	

The remaining lines, values ahead:

inhibition at 0.1 µM [%]	IC50 [nM]	Compound
< 50		C=CC(=O)Nc1cccc(-c2cc(-c3ccc(C(=O)Nc4ncccc4F)cc3)c(N)c3cncnc23)c1 [C211, 4-(8-(3-acrylamidophenyl)-5-aminoquinazolin-6-yl)-N-(3-fluoropyridin-2-yl)benzamide]
< 50		C=CC(=O)Nc1cccc(-c2cc(-c3ccnc(C(F)(F)F)c3)cc3cncnc23)c1 [C018, N-(3-(6-(2-(trifluoromethyl)pyridin-4-yl)quinazolin-8-yl)phenyl)acrylamide]
< 50		C=CC(=O)N1CCC(c2cc(-c3ccc(C(=O)Nc4cc(C(F)(F)F)ccn4)c(F)c3)n3cnccc23)C1 (centres unmarked) [C152, 4-(5-(1-acryloylpyrrolidin-3-yl)pyrrolo[1,2-c]pyrimidin-7-yl)-2-fluoro-N-(4-(trifluoro-methyl)pyridin-2-yl)benzamide]
< 50		C=CC(=O)N1CCC(c2cc(-c3ccc(C(=O)Nc4cc(C5CC5)ccn4)cc3F)n3cnccc23)C1 (centres unmarked) [C149, 4-(5-(1-acryloylpyrrolidin-3-yl)pyrrolo[1,2-c]pyrimidin-7-yl)-N-(4-cyclopropylpyridin-2-yl)-3-fluorobenzamide]
< 50		C=CC(=O)N1CCCC(c2cc(-c3ccccc3)cc3c(N)ncnc23)C1 (centres unmarked) [C034, 1-(3-(4-amino-6-phenylquinazolin-8-yl)piperidin-1-yl)prop-2-en-1-one]
< 50		C=CC(=O)N1CCC(c2cc(-c3ccc(C(=O)Nc4cc(OC)ccn4)c(F)c3)n3cnccc23)C1 (centres unmarked) [C148, 4-(5-(1-acryloylpyrrolidin-3-yl)pyrrolo[1,2-c]pyrimidin-7-yl)-2-fluoro-N-(4-methoxypyridin-2-yl)benzamide]
< 50		C=CC(=O)Nc1cccc(-c2cc(-c3ccc(Nc4ccccc4)cc3)cc3cncnc23)c1 [C025, N-(3-(6-(4-(phenylamino)phenyl)quinazolin-8-yl)phenyl)acrylamide]
> 50	< 100	C=CC(=O)N1CCC(c2nc(-c3ccc(Oc4cc(OC)ccn4)c(F)c3)n3c(N)nccc23)C1 (centres unmarked) [C216, 1-(3-(5-amino-3-(3-fluoro-4-((4-methoxy-pyridin-2-yl)oxy)phenyl)imidazo[1,5-c]pyrimidin-1-yl)pyrrolidin-1-yl)prop-2-en-1-one]
< 50		C=CC(=O)N1CCC(c2cc(-c3cncc(C(F)(F)F)c3)cc3cncnc23)C1 (centres unmarked) [C066, 1-(3-(6-(5-(trifluoromethyl)pyridin-3-yl)quinazolin-8-yl)pyrrolidin-1-yl)prop-2-en-1-one]
> 50	< 100	C=CC(=O)Nc1cccc(-c2cc(-c3ccccc3)cc3cnc(N)nc23)c1 [C005, N-(3-(2-amino-6-phenylquinazolin-8-yl)phenyl)acrylamide]
> 50	< 100	C=CC(=O)Nc1cccc(-c2cc(-c3ccc(Oc4cccnc4)cc3)cc3cncnc23)c1 [C117, N-(3-(6-(4-(pyridin-3-yloxy)phenyl)quinazolin-8-yl)phenyl)acrylamide]
	< 100	CC#CC(=O)N1CCC(c2nc(-c3ccc(C(=O)Nc4ccccn4)c(F)c3)n3c(N)nccc23)C1 (centres unmarked) [C231, 4-(5-amino-1-(1-(but-2-ynoyl)pyrrolidin-3-yl)imidazo[1,5-c]pyrimidin-3-yl)-2-fluoro-N-(pyridin-2-yl)benzamide]
> 50		CC#CC(=O)N1CCC(c2nc(-c3ccc(Oc4cc(OC)ccn4)cc3)n3c(N)nccc23)C1 (centres unmarked) [C214, 1-(3-(5-amino-3-(4-((4-methoxypyridin-2-yl)oxy)phenyl)imidazo[1,5-c]pyrimidin-1-yl)pyrrolidin-1-yl)but-2-yn-1-one]
< 50		C=CC(=O)N1CCC(c2cc(-c3ccc(C(=O)Nc4cc(C#N)ccn4)c(F)c3)n3cnccc23)C1 (centres unmarked) [C172, 4-(5-(1-acryloylpyrrolidin-3-yl)pyrrolo[1,2-c]pyrimidin-7-yl)-N-(4-cyanopyridin-2-yl)-2-fluorobenzamide]
< 50		C=CC(=O)Nc1cccc(-c2cc(-c3ccc(Oc4ccccc4)cc3)n3cnccc23)c1 [C057, N-(3-(7-(4-phenoxyphenyl)pyrrolo[1,2-c]pyrimidin-5-yl)phenyl)acrylamide]
< 50		C=CC(=O)Nc1cccc(-c2cc(-c3ccc(C(=O)Nc4ccccc4)nc3)cc3cnc(N)nc23)c1 [C059, 5-(8-(3-acrylamidophenyl)-2-aminoquinazolin-6-yl)-N-phenylpicolinamide]
> 50	< 100	C=CC(=O)Nc1cccc(-c2cc(-c3ccc(C(=O)Nc4cc(C(F)(F)F)ccn4)cc3Cl)cc3cncnc23)c1 [C116, 4-(8-(3-acrylamidophenyl)quinazolin-6-yl)-3-chloro-N-(4-(trifluoromethyl)pyridin-2-yl)benzamide]
